Earlier results as cited in patent US8084444B2, “Treatment of dermatitis with dehydroepiandrosterone-glucocorticoid combinations” (RxDino, LLC, priority 2004, dated 2011).

Conditions: equivalent in glucocorticoid potency

SMILES	Approximate Glucocorticoid Dose Equivalent
C[C@]12CCC(=O)C=C1CC[C@@H]1[C@@H]2C(=O)C[C@@]2(C)[C@H]1CC[C@]2(O)C(=O)CO [Cortisone]	~25 mg
C[C@]12CCC(=O)C=C1CC[C@@H]1[C@@H]2[C@@H](O)C[C@@]2(C)[C@H]1CC[C@]2(O)C(=O)CO [Hydrocortisone]	~20 mg
C[C@]12C=CC(=O)C=C1CC[C@@H]1[C@@H]2[C@@H](O)C[C@@]2(C)[C@H]1CC[C@]2(O)C(=O)CO [Prednisolone]	~5 mg
C[C@]12C=CC(=O)C=C1CC[C@H]1[C@@H]3C[C@@H](O)[C@](O)(C(=O)CO)[C@@]3(C)C[C@H](O)[C@@]12F [Triamcinolone]	~0.8 mg
